Where two headings read alike, the source gives them in different places.
How the values were obtained:
[1] = system: TGF-β1 induced ECM accumulation in HFL1 human lung fibroblast cells; experiment: TGF-β1 induced monolayer extracellular matrix (ECM) accumulation assay (Sirius Red collagen) in fibronectin-coated plates; assay type: cell-based; details: for inhibition at 300 µM: compound alone at 300 μM (FIG. 1)
Excerpt: The composition comprising tranilast and NAC or composition containing pirfenidone and NAC was investigated for their antifibrotic activity by employing in vitro collagen synthesis assay: the TGF-β1 induced monolayer extracellular matrix (ECM) accumulation assay in fibronectin-coated plates.
Method Human lung fibroblast cell line, HFL1, was purchased from American Type Culture Collection. Cells were maintained in FK12 medium supplemented with 10% FBS and antibiotics. Cells were trypsinized and seeded into 96-well fibronectin-coated plate as 5×10^4cells/well and cultured overnight to achieve 60-80% confluence. After a washing with PBS and serum-free medium, fresh medium supplemented with 40 pM of TGF-β1 was added in each test well. Different concentrations of tranilast, pirfenidone, NAC and their combinations were also added to some test wells. The plates were left at 37° C. in a CO2 incubator for 72 h. After removing medium cells were fixed to the plate with 0.5% glutaraldehyde for 30 minutes at room temperature. Cells were washed and treated with 0.5M acetic acid for 30 minutes. After washing cells with distilled water 250 µl of Sirius Red was added for 2 hours. Dye was removed and cells were washed with distilled water. Sirius Red was eluted with 200 ul 0.1 N sodium hydroxide, and the optical density at 540 nm was determined using a Molecular Dynamics spectrophotometer.

[2] = cited from earlier work
[3] = doses of up to 600 mg/day for at least 3 months, many years of clinical use; cited from earlier work
[4] = HFL1 cells, 40 pM TGF-β1, 72 h, compound alone at 10 μM (FIG. 1)
[5] = Homo sapiens, HFL1 cells, 40 pM TGF-β1, 72 h, read-out: inhibition of TGF-β1 mediated ECM (collagen) accumulation
[6] = combination screen plate (FIG. 2A/3A), HFL1 cells, compound alone at 300 μM

With `CC(=O)N[C@@H](CS)C(=O)O` [NAC, N-acetyl-cysteine] the “inhibition of TGF-β1 mediated ECM accumulation” value ([1]; HFL1 cells, 40 pM TGF-β1, 72 h, alone at 0.1 mM (FIG. 1C)) was “not effective”, the “inhibition of TGF-β1 mediated ECM accumulation” value ([1]; HFL1 cells, 40 pM TGF-β1, 72 h, alone at 0.5 mM (FIG. 1C)) was “not effective” and the “inhibition of TGF-β1 mediated ECM accumulation” value ([1]; HFL1 cells, 40 pM TGF-β1, 72 h, alone at 1 mM (FIG. 1C)) was “not effective”. For the same compound, the “suppression of TGF-β1 mediated ECM accumulation” value ([1]; HFL1 cells, 40 pM TGF-β1, 72 h, alone at 2 mM (FIG. 1C)) was 32±14%, the “suppression of TGF-β1 mediated ECM accumulation” value ([1]; HFL1 cells, 40 pM TGF-β1, 72 h, alone at 5 mM (FIG. 1C)) was 45±17% and the “suppression of TGF-β1 mediated ECM accumulation” value ([1]; HFL1 cells, 40 pM TGF-β1, 72 h, alone at 10 mM (FIG. 1C)) was 70.5±18%. The inhibition at 20000 µM ([1]; Homo sapiens, HFL1 cells, 40 pM TGF-β1, 72 h, alone at 20 mM (FIG. 1C), read-out: inhibition of TGF-β1 mediated ECM accumulation) was 100% and the “suppression of TGF-β1 mediated collagen accumulation” value ([1]; screen plate FIG. 2A, compound alone at 2 mM) was 25%.

With `Cc1ccc(=O)n(-c2ccccc2)c1` [pirfenidone, 5-methyl-L-phenyl-2-(1H)-pyridone] the “inhibition of TGF-β1 mediated ECM (collagen) accumulation” value (from here on “inhibition … (collagen) accumulation”) [1, 4] was “not effective”, the “inhibition … (collagen) accumulation” value ([1]; HFL1 cells, 40 pM TGF-β1, 72 h, compound alone at 100 μM (FIG. 1)) was “not effective” and the inhibition at 1000 µM ([1]; Homo sapiens, HFL1, screen plate FIG. 3A, compound alone at 1000 μM, read-out: anti-fibrosis activity (inhibition of TGF-β1 induced collagen accumulation)) was 100%. The inhibition at 300 µM [1, 5] was 22 ± 7%, the inhibition at 500 µM ([1]; Homo sapiens, HFL1 cells, 40 pM TGF-β1, 72 h, compound alone at 500 μM (FIG. 1), read-out: inhibition of TGF-β1 mediated ECM (collagen) accumulation) was 33 ± 8% and the inhibition at 1000 µM ([1]; Homo sapiens, HFL1 cells, 40 pM TGF-β1, 72 h, compound alone at 1000 μM (FIG. 1), read-out: inhibition of TGF-β1 mediated ECM (collagen) accumulation) was roughly 100%. The “suppression of TGF-β1 mediated collagen accumulation” value [1, 6] was 18% and the plasma concentration ([2]; usual therapeutic dose of 1200 mg/day (Shi, Wu et al. 2007)) was 100 to 1000 µM.

In the case of `COc1ccc(/C=C/C(=O)Nc2ccccc2C(=O)O)cc1OC` [tranilast, n-[3,4-dimethoxycinnamoyl] anthranilic acid], the “shift in the potency of tranilast” value ([1]; 50 μM tranilast with 2 mM NAC (88%) versus tranilast alone (11%)) is reported as 8 fold, the “inhibition … (collagen) accumulation” value [1, 4] is reported as “no significant inhibition” and the “inhibition … (collagen) accumulation” value ([1]; HFL1 cells, 40 pM TGF-β1, 72 h, compound alone at 25 μM (FIG. 1)) is reported as “no significant inhibition”. The “inhibition … (collagen) accumulation” value ([1]; HFL1 cells, 40 pM TGF-β1, 72 h, compound alone at 50 μM (FIG. 1)) was “no significant inhibition”, the inhibition at 100 µM ([1]; Homo sapiens, HFL1 cells, 40 pM TGF-β1, 72 h, compound alone at 100 μM (FIG. 1), read-out: inhibition of TGF-β1 mediated ECM (collagen) accumulation) was 34 ± 11% and the inhibition at 300 µM [1, 5] was 100%. The “suppression of TGF-β1 mediated collagen accumulation” value [1, 6] was 100%, the “suppression of TGF-β1 mediated collagen accumulation” value ([1]; screen plate FIG. 2A, compound alone at 50 μM) was 11% and the plasma concentration ([2]; after oral administration of the usual therapeutic dose of 600 mg/day (Kusama et al. 1999)) was 30 to 300 µM. For the same compound, the “clinical safety and tolerability” value [3] was “safe and well tolerated”.
